Results taken from BindingDB's records for doi:10.1016/S1074-5521(01)00067-9 (University of California San Francisco, 2001).

Columns and labels:
Assay in all cases: Inhibition Assay
Thymidylate synthase [1] = molecular target: T1, Thymidylate synthase (Lacticaseibacillus casei, UniProt P00469)
T1 sequence (P00469 whole entry): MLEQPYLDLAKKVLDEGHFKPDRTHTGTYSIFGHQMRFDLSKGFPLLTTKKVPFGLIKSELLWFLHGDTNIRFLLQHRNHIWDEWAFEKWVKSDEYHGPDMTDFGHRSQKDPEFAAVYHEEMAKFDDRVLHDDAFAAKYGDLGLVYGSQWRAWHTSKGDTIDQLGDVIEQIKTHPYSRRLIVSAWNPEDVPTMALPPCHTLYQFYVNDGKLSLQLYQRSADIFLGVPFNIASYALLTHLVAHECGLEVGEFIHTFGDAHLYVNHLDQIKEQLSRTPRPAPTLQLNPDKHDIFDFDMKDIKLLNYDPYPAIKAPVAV
Source text: (§1) Affinity assay of specificities of thymidylate synthase (TS)inhibitors

Thymidylate synthase [2] = molecular target: Thymidylate synthase (Escherichia coli (strain K12), UniProt P0A884)
Thymidylate synthase (Escherichia coli (strain K12), UniProt P0A884), sequence (P0A884 whole entry): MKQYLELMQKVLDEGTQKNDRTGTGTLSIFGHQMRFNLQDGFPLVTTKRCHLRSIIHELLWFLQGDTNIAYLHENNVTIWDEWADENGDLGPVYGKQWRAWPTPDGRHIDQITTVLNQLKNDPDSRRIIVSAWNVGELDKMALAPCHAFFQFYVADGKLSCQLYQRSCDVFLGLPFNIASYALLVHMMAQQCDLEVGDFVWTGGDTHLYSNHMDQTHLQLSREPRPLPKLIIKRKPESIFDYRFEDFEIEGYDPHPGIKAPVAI
Source text: as §1

Thymidylate synthase [3] = molecular target: Thymidylate synthase (Homo sapiens, UniProt P04818)
Thymidylate synthase (Homo sapiens, UniProt P04818), sequence (P04818 whole entry): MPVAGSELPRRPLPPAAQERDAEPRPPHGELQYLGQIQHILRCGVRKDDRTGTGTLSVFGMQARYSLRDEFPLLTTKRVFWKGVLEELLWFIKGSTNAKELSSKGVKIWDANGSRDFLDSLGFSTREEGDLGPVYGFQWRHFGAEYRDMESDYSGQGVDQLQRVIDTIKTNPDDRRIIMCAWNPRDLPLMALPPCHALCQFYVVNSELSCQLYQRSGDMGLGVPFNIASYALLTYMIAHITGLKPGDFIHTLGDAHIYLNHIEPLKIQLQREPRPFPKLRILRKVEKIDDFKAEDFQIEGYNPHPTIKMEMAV
Source text: as §1

| IC50 (Thymidylate synthase [1]) [µM] | IC50 (Thymidylate synthase [2]) [µM] | IC50 (Thymidylate synthase [3]) [µM] | Compound |
| --- | --- | --- | --- |
| 53 | – | – | CCCCN(CCCC)c1cccc2c(S(=O)(=O)Oc3ccc(CC(N)C(=O)O)cc3)cccc12 (centres undefined) |
| 70 | – | – | NC(Cc1ccc(OC(=O)c2ccc3ccccc3c2)cc1)C(=O)O (centres undefined) [2-naphthylcarbonyl] |
| 4.7 | – | – | NC(Cc1ccc(OS(=O)(=O)c2ccc3ccccc3c2)cc1)C(=O)O (centres undefined) [2-naphthylsulfonyl] |
| > 100 | – | – | CN(C)c1ccc(/N=N\c2ccc(S(=O)(=O)Oc3ccc(CC(N)C(=O)O)cc3)cc2)cc1 (centres undefined) [4'-(dimethylamino)azobenzene-4-sulfonyl] |
| 458 | 1110 | 36 | CN(C)c1cccc2c(S(=O)(=O)NN)cccc12 [5-(dimethylamino)naphthalene-1-sulfonohydrazide] |
| – | 1170 | 771 | CN(C)c1cccc2c(S(=O)(=O)Oc3ccc(CC(N)C(=O)O)cc3)cccc12 [Dansyl derivatives 1A, (S) isomer] |
